The numbers were not newly measured in patent publication US9433643B2, “Microbicidal composition comprising hydrogen peroxide and aminocarboxylic acids” (Truox, Inc., priority 2013, dated 2016), which cites them from elsewhere.

The conditions of data set [1]: reported.
The conditions of data set [2]: at 25° C., reported.

With `O=C(O)CN(CCN(CC(=O)O)CC(=O)O)CC(=O)O` [EDTA, ethylenediaminetetraacetic acid], in data set [1] (carboxylic acid groups), the pK1 is 2.00, the pK2 was 2.65, the pK3 is 6.18 and the pK4 is recorded as 10.30.

With `CC(=O)OO` [Peroxyacetic acid], the pKa in data set [1] is 4.76.

As for `C[C@H](N)C(=O)O` [alanine], the “isoelectric point (pI)” value in data set [2] is recorded as 6.11.

In the case of `N=C(N)NCCC[C@H](N)C(=O)O` [arginine], the “isoelectric point (pI)” value in data set [2] is reported as 10.76.

On to `N[C@@H](CC(=O)O)C(=O)O` [aspartic acid], for which the “isoelectric point (pI)” value in data set [2] is reported as 2.98.

Consider `N[C@@H](CCC(=O)O)C(=O)O` [glutamic acid], for which the “isoelectric point (pI)” value in data set [2] is recorded as 3.08.

Regarding `NCC(=O)O` [glycine, aminoethanoic acid], in data set [2], the “isoelectric point (pI)” value is on record as 6.06.
